In US20160258954A1, “METHOD OF DIAGNOSING AND TREATING EPSTEIN BARR VIRUS-BASED MYALGIC ENCEPHALOMYELITIS CHRONIC FATIGUE SYNDROME PATIENTS USING A SERUM ANTIBODY ASSAY” (CFS, LLC, priority 2015, published 2016):

Tests used:
[1] = Group A patients
[2] = test system: SEID patients; assay: Reviews of antiviral therapy of EBV, CMV and HHV6 subset Group A SEID patients; format: in vivo, human; settings: cidofovir: unpublished studies
From the text: These antiviral agents inhibit the respective DNA polymerases of the appropriate CMV, EBV, HHV6 herpesviruses.[8] […] Herpesvirus (EBV, CMV, HHV6) abortive lytic replication may be associated with SEID.

[3] = test system: CFS patients; assay: Cidofovir treatment of CFS patients; format: in vivo, human
Method: In general, to provide a therapeutically effective amount of the antiviral agent, a suitable effective dose will be in the range of 0.1 to 20 grams a day and preferably in the range between 0.3 to 15 grams per day, more preferably about 0.5 to 10 grams per day. The dosage of course, varies with the body weight of the patient up to a 70 kg individual, a dose of 4 grams per day may be appropriate (e.g., […] valacyclovir every six hours). The desired dose can be presented as two-four or more smaller doses administered at appropriate intervals throughout the day. These smaller doses may be administered in unit's dosage forms. For example, for valacyclovir and famciclovir, the dosage can be, for example 14 mg/kg every 6 hours (1.0 g every 6 hours for a 70 kg person). The dosage of valacyclovir and famciclovir can be, for example, up to or at least about 0.5-8 grams every 6 hours. The dosage of valgancyclovir can be, for example, from about 450-900 mg every 12 hours, or up to or at least about 100-2000 mg or more every 12 hours, depending on for example patient weight and tolerance. For maribavir the dosage can be, for example, for about 400-500 mg every 8 hours or for example up to or at least about 100-1000 or more every 8 hours. […] Accordingly, the dosage is adjusted to […] every two weeks. […]

[4] = test system: Group A ME/CFS patients (EBV, HCMV, HHV6 subsets); assay: Systematic review 2001-2007 of Group A ME/CFS patients given subset-directed antiviral treatment; format: in vivo, human; settings: 79 of 106 group A patients, pooled valacyclovir (EBV subset) or valganciclovir (HCMV, HHV6 subsets); p<0.0001
From the text: A ME/CFS diagnostic panel was created utilizing initial Fukuda/Carruthers criteria and a systematic review of 142 ME/CFS patients. Two groups of ME/CFS patients were found. Group A patients had elevated serum IgG antibody titers to the herpes viruses Epstein-Barr virus (EBV), cytomegalovirus (HCMV) and Human Herpes virus 6 (HHV6) in single or multiple virus infection, but no other co-infections. Group B patients had similar elevated herpes virus antibody titers, plus serologic evidence of co-infections, tick-borne (“Borrelia burgdorferi”, “Anaplasma phagocytophilia”, “Babesia microti”); “Mycoplasma pneumoniae”; or adult rheumatoid fever. One hundred and six group A ME/CFS patients were followed from 2001-2007, and treated with subset directed valacyclovir EBV subset or valganciclovir (HCMV, HHV6 subsets). The data included over 7000 patient visits and 35,000 data entries.

[5] = test system: EBV subset ME/CFS patients; assay: Energy Index Point Score (EIPS) of six EBV subset ME/CFS patients treated with valacyclovir for over 12 months; format: in vivo, human
From the text: FIG. 2A is a table depicting the clinical results that establish EBV Abortive Lytic replication in the first of six EBV subset ME/CFS patients treated with valacyclovir for over 12 months;
As depicted in FIG. 1, the Energy Index (EI) point score (Copyright, Lerner AM and Deeter R G, 1999), is a simple and reliable metric that can be used to easily evaluate the functional capacity of the CFS patient at each patient-physician visit. *The CFS Energy Index point score can also be determined by questionnaire (US copyright, 1999 Lerner A. M., Deeter, R. J) reproduced with permission. **Kcal per day is calculated for a 70 kg CFS patient. The EI is measured on a scale of 1-10. Validation of the EI was done using two methods: 1.) 20 CFS patients and 22 healthy adults, matched for sex, age, place, and time; EI, CFS=3.6; EI, healthy adults=9.9, p=<0.0001; and 2.) 55 CFS patients evaluated at the same time by the EI and fatigue severity score, correlation 0.67, p=0.0066. Improvement to disappearance of CFS symptoms correlates with an increasing EI.
The validated energy index point score generally can be calculated for each CFS patient every 3 months at physician visits. […]
Demographics. […] The EIPS is a validated (FSS-9 item scale with high degree of internal consistency measured by Cronbach's alpha) is a Functional Activity Appraisal: energy Index Score Healthcare worker Appraisal.

[6] = target: EBV thymidine kinase (Epstein-Barr virus, UniProt P03177); settings: after gastrointestinal absorption; cited from earlier work
Sequence of EBV thymidine kinase (P03177 whole entry): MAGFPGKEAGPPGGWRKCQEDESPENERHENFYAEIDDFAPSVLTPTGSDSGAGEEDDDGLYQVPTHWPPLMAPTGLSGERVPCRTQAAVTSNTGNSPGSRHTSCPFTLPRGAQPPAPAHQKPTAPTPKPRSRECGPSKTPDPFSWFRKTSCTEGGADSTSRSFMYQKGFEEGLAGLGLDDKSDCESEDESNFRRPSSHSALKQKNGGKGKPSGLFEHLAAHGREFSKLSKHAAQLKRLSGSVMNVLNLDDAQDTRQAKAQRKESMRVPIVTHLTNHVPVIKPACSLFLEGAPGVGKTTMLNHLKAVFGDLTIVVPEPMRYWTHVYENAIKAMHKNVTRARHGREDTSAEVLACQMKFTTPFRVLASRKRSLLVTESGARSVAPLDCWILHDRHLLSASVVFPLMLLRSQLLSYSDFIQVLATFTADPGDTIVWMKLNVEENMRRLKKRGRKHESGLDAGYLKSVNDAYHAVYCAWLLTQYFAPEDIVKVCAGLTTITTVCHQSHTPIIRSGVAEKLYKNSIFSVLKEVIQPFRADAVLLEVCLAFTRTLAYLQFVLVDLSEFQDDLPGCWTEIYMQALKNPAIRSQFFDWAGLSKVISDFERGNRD

Structure (SMILES)	therapeutic result in SEID patients [2]	Group A patients recovered to resume normal life [4] [%]	other results
Nc1nc2c(ncn2COCCO)c(=O)[nH]1 [acylocivir]			absorption [1]: typically not absorbed
Nc1ccn(C[C@@H](CO)OCP(=O)(O)O)c(=O)n1 [cidofovir]	salutary results		effectiveness relative to other antiviral agents ([3]; administered intravenously): two to three time more effective; treatment time ([3]; patients over 50 and/or CFS over 10 years, reduced from over one year): 6-9 months
CC(=O)OCC(CCn1cnc2cnc(N)nc21)COC(C)=O [famciclovir]	salutary results		
CC(C)[C@H](N)C(=O)OCCOCn1cnc2c(=O)[nH]c(N)nc21 [valacyclovir]	salutary results	74.5	final EIPS values ([5]; 5 group A ME/CFS patients, one year later, initial EIPS 3.5-5.0 (one patient 6)): 7-8; final EIPS value ([5]; single group B ME/CFS patient (Borrelia burgdorferi co-infection), baseline 3.5): 5; greater affinity for EBV thymidine kinase than for the host cellular enzyme [6]: 200 ×
CC(C)[C@H](N)C(=O)OCC(CO)OCn1cnc2c(=O)nc(N)[nH]c21 (stereo partly drawn) [valganciclovir]	salutary results	74.5	
